According to publication PMC12881674, “Activation of TRPV3 channels in bladder cancer cells stimulates ATP release” (Molecular Pharmacology, 2025):

What was measured:
KU-19-19 cells [1] = assay: MTT cell viability/proliferation assay; type: cell-based, human; conditions: 24 hours, concentrations up to 50 μM
Protocol: To monitor a potential cytotoxicity of individual compounds, 3-(4,5-dimethylthiazol-2-yl)-2,5-diphenyltetrazolium bromide (MTT) assays were performed to assess cell viability and metabolic activity. Cells (5000 per/well) were seeded in PLL-coated 96-well plates and allowed to adhere overnight. After 24 hours, culture medium was exchanged for medium containing indicated drugs, and cells were cultured for another 24 hours. Following treatment with the compounds, 100 μL of medium containing 0.5 mg/mL MTT was added, and cells were incubated for additional 3 hours. The medium was removed, and 100 μL of DMSO was added to dissolve formazan crystals. Absorbance was measured at 560 nm, with a reference wavelength at 670 nm using a plate reader (Polarstar Omega; BMG Labtech). Cell viability was calculated relative to untreated control cells.
Fig. 4 TRPV3 activation by AV3-1 was enhanced by cholesterol supplementation and causes ATP release in KU-19-19 bladder cancer cells. […] Current amplitudes were recorded using voltage ramps from −100 mV to +100 mV (500-millisecond duration) and expressed as current density (pA/pF) measured at +100 mV and −100 mV. (C) Quantification of current densities (pA/pF) at −100 mV (inward current) and +100 mV (outward current) at the time points (1, 2) as indicated in (A, B). […]

KU-19-19 cells [2] = assay: ATPlite luminescence assay of extracellular ATP; type: cell-based, human; conditions: 50 μM AV3-1, 30 minutes
Protocol: KU-19-19 cells (1 × 10^5 per well) were plated in 24-well plates and cultured for 24 hours. Medium was removed, and wells were washed with PBS before adding 1 mL of drugs dissolved in PBS. After 30 minutes, 100 μL of the supernatant was transferred to a 96-well plate. ATP content was measured using the ATPlite luminescence ATP assay (Revvity, catalog number 6016943) following manufacturer’s instructions. Luminescence was recorded using a Polarstar Omega reader and normalized to control wells without addition of drugs.
Fig. 4 TRPV3 activation by AV3-1 was enhanced by cholesterol supplementation and causes ATP release in KU-19-19 bladder cancer cells. […] Current amplitudes were recorded using voltage ramps from −100 mV to +100 mV (500-millisecond duration) and expressed as current density (pA/pF) measured at +100 mV and −100 mV. (C) Quantification of current densities (pA/pF) at −100 mV (inward current) and +100 mV (outward current) at the time points (1, 2) as indicated in (A, B). […] Statistical significance was determined using Kruskal-Wallis ANOVA followed by Conover test; ∗P < .05. […] Inset: Box-and-whisker plots of AV3-1 potencies under control conditions (open box) and following cholesterol supplementation (gray box), derived from individual concentration-response fits and expressed as pEC50 (-log10(EC50 [M])). […]

SMILES: COC(=O)C12CN(Cc3ccccc3)CC1(C(=O)OC)CN(Cc1ccccc1)C2 (centres unmarked) [AV3-1]
- toxicity (cell viability and proliferation, MTT) (KU-19-19 cells [1]): only minor toxicity
- ATP release compared with untreated control cells (KU-19-19 cells [2]): statistically significant increased ATP release
